The text below walks through data of ChEMBL document CHEMBL4414610, “Constituents from the Leaves of Tetraena mongolica and Their Protective Activity in HEK 293t Cells Damaged by CdCl2” (J Nat Prod, 2019).

SMILES strings stand for the structures. Calls of active or inactive are those of the source. The rule behind the calls is not given here.

Assay [1] has as its system HEK-293T. Put plainly: Cytoprotective activity against CdCl2-induced cell death in human HEK293T cells at 25 to 100 uM preincubated for 2 hrs followed by CdCl2 treatment and measured after 12 hrs by MTT assay. Format: functional, cell-based. Background: Tetrazolium dyes change colour on reduction, which living cells bring about.
In assay [2] the test system is HEK-293T. Put plainly: Cytoprotective activity against CdCl2-induced cell death in human HEK293T cells assessed as increase in cell viability preincubated for 2 hrs followed by CdCl2 treatment and measured after 48 hrs by MTT assay. The assay is classed as functional, cell-based.

Broadly, the IC50 is the point on the concentration scale where inhibition reaches its midpoint.

Turning to `C[C@@H]1O[C@@H](OC[C@H]2O[C@@H](Oc3c(-c4ccc(O)c(O)c4)oc4cc(O)cc(O)c4c3=O)[C@H](O)[C@@H](O)[C@@H]2O)[C@H](O)[C@H](O)[C@H]1O`, the outcome in the assay with HEK-293T [1] was Active. Consider `CC1=CC(=O)CC(C)(C)[C@@]1(O)/C=C/[C@@H](C)O[C@@H]1O[C@H](CO)[C@@H](O)[C@H](OS(=O)(=O)O)[C@H]1O`, for which, in the assay on HEK-293T [1], the result was Active. Take `CC1=CC(=O)CC(C)(C)[C@@]1(O)/C=C/[C@@H](C)O[C@@H]1O[C@H](CO)[C@@H](O)[C@H](O)[C@H]1O` [6S,9R-ROSEOSIDE]: the outcome in the assay on HEK-293T [1] was Active. In the assay with HEK-293T [2], the IC50 came out at 55.7 µM.

Turning to `O=c1c(O[C@@H]2O[C@H](CO)[C@@H](O)[C@H](O)[C@H]2O)c(-c2ccc(O)c(O)c2)oc2cc(O)cc(O)c12`, the result in the assay on HEK-293T [1] was Active. With `COc1cc(-c2oc3cc(O)cc(O)c3c(=O)c2O[C@@H]2O[C@H](CO[C@@H]3O[C@@H](C)[C@H](O)[C@@H](O)[C@H]3O)[C@@H](O)[C@H](O)[C@H]2O)ccc1O`, the outcome in the assay on HEK-293T [1] was Active.

As to `OC[C@H]1O[C@@H](OCc2ccccc2)[C@H](O)[C@@H](O)[C@@H]1O`, the result in the assay on HEK-293T [1] was Active. In the assay with HEK-293T [2], the IC50 was 80.3 µM. As to `C[C@H](/C=C/[C@@]1(O)[C@H](C)CC(=O)CC1(C)C)O[C@@H]1O[C@H](CO)[C@@H](O)[C@H](OS(=O)(=O)O)[C@H]1O`, in the assay with HEK-293T [1], the outcome was Active. On the same count and under the same terms, next, `C[C@H](CCc1ccc(O)cc1)O[C@@H]1O[C@H](CO)[C@@H](O)[C@H](OS(=O)(=O)O)[C@H]1O`: “Active”.
